Publication PMC10454726 (International Journal of Molecular Sciences, 2023)

How the values were obtained:
female Wistar rats = test: Acute oral toxicity (OECD guideline 425); assay type: in vivo; details: for toxic effects at the macroscopic level (necropsy images): 175, 550, and 2000 mg/kg; for AOT (acute oral toxicity): female Wistar rats
Procedure: They were kept in standard polypropylene boxes under controlled temperature (24 ± 4 °C) on a 12 h light/dark cycle and provided conventional food (formula 5001, Rat Chow) and purified water ad libitum. […] At the end of the experiment, the animals were taken to the humanitarian endpoint by the intraperitoneal (ip) administration of 75 mg/kg of sodium pentobarbital to perform a necropsy in the bioterium of FESC, UNAM. During the necropsy, blood serum was extracted to quantify glucose, triacylglycerides, cholesterol, and insulin. The study was conducted based on the guidelines of the Declaration of Helsinki and approved by the Institutional Review Board: Internal Committee for the Care and Use of Experimentation Animals (CICUAE, according to the initials in Spanish, C23_02 on March 2023) of the FESC UNAM (Mexico). It complies with the Mexican norm for this matter (NOM-062-ZOO-1999, Technical Specifications for the Production, Care, and Use of Laboratory Animals, SAGARPA), as well as the Guide for the Care and Use of Laboratory Animals of the National Research Council and National Institutes of Health (NIH Publications No. 8023, revised 1978).
The female Wistar rats (n = 3) were used to obtain the AOT based on the procedures of Guide Number 425 of the Organization for Economic Cooperation and Development (OECD). The rats were closely monitored for 48 h after receiving oral doses of FC-114 or FC-122. Rat 1 received 175 mg/kg, rat 2 received 550 mg/kg, and rat 3 received 2000 mg/kg. They were then observed for 14 days until a necropsy to check for any toxic effects.

[1] = test system: streptozotocin-induced diabetic rats; test: Weekly fasting glucose in streptozotocin-induced diabetic rats; assay type: in vivo, Wistar rat; details: after 7 and 14 days of treatment (weeks 6 and 7)
Procedure: (§1) After a week of acclimation, 35 male Wistar rats were given a single intraperitoneal dose of STZ (Sigma Chemical Co. Toluca, Estado de México, Mexico) at a dosage of 45 mg/kg of body weight, after fasting for 12 h overnight with free access to water. To prevent initial drug-induced hypoglycemia mortality, these animals were given a 10% sucrose solution 24 h after administration. STZ was dissolved in 0.1 M of sodium citrate buffer (pH 4.5) and administered in a final volume of 5 mL/kg. A week after STZ injection, diabetes in streptozotocin rats was confirmed by measuring fasting blood glucose (by glucose oxidase method). Animals with a blood glucose (tail vein) above 126 mg/dL were considered diabetic and used for the experiment to create groups 2, 3, 4, 5, 6, and 7 [1, 13]. Blood glucose levels were measured using a glucometer (Accu-Chek Active, Roche, Mannheim, Germany) and reactive strips (Accu-Chek Active Glucose test strips, Roche). The presence of hyperglycemia and insulin level confirmed a model very similar to T2D in humans. For the pharmacological study, the final number of animals was 35 male rats, with 3 rats being sacrificed during the treatment stage. One was administered with FC-114 and two with acarbose. The first rat was damaged during oral glucose administration in the OGTT at week 5, and the other rats had gastrointestinal complications in week 7.
(§2) The diabetic animals in group 2 (untreated) were given 4% v/v aqueous EtOH solution (vehicle of treatments) in a volume of 6.5 mL/kg body weight. The other groups (3–7) received different treatments for 14 days (weeks 5 to 7). […] All of the treatments were at equimolar doses of PIO and adjusted to the weekly weight of each rat. […] The commercial PIO tablet (30 mg) was crushed in 7.5 mL of vehicle and given to each animal in 4.0 mg/mL of suspension. The FC-114 and FC-122 suspensions were created at 6.2 and 6.0 mg/mL, respectively. The commercial acarbose tablet (50 mg) was crushed in 7.5 mL of the vehicle and given to each animal in a suspension of 6.6 mg/mL. Each suspension was used within 2 days of its preparation, and the administration volume was near to 2.5 mL for each rat.

[2] = Cytotoxic effect on Human Foreskin fibroblasts (SRB); assay type: cell-based; details: HFF-1 cells
Procedure: However, at high concentrations, they can be harmful to cells. For humans, doses less than 100 mg/day are considered safe. […] Therefore, we conducted cytotoxicity assays on Human Foreskin fibroblasts (HFF-1) and an AOT on female Wistar rats to assess their safety.
In a 96-well plate, 7000 cells per well of Human Foreskin fibroblasts (HFF-1) were cultured. […] Untreated cells were also included as a negative control. At the end of the incubation period, the cell contents were precipitated with 50 µL of a 50% aqueous solution of trichloroacetic acid (TCA) at 4 °C for 1 h. The supernatant was discarded and washed 5 times with distilled water. Afterward, the plates were allowed to dry at room temperature. The cell contents were incubated with 100 µL of a 0.04% sulforhodamine B (SRB) solution for 1 h at room temperature. The excess SRB was removed by washing with a 1% aqueous acetic acid solution. […] With the data obtained, the viability of treated cells was calculated by comparing the control without treatment. CC50 value was determined by employing BioStat Pro 5.9.8 software (AnalystSoft Inc., Brandon, FL, USA).

[3] = test system: streptozotocin-induced diabetic rats; test: Oral glucose tolerance test in streptozotocin-induced diabetic rats; assay type: in vivo, Wistar rat; parameters: AUC of the OGTT: unit not given here
Procedure: as §1, §2
The OGTT was carried out in weeks 3, 4, 5, 6, and 7. Prior to the OGTT, all animal groups fasted overnight for eight hours with free access to water. Each rat was weighed and then received a 2 g/kg glucose overload orally and blood samples were taken from the tail vein [13, 97]. Glucose levels were measured using a glucometer (Accu-Chek Active, Roche, Mannheim, Germany) at 0, 30, 60, 90, 120, and 180 min after glucose administration. The AUC of the OGTT was calculated using the blood glucose concentration over time and the GraphPad Prism 8.0.1 software package (GraphPad Software; Science Inc., San Diego, CA, USA) was used to compare the effectiveness of the treatments.

[4] = molecular target: α-glucosidase from Rominococcus obeum (Blautia obeum, UniProt A5ZY13); test: Enzymatic kinetics of α-glucosidase inhibition (pNPG substrate); assay type: biochemical
Procedure: The kinetic studies for PTP1B and α-glucosidase were carried out under the same conditions described in the references.

[5] = Week 5 (day 1 of treatment), oral, glibenclamide 0.6, FC-114 51.3, FC-122 49.1, PIO 30, acarbose 54.3 mg/kg/day
[6] = Week 6 (day 7 of treatment), same doses
[7] = Week 7 (day 14 of treatment), same doses

α-glucosidase from Rominococcus obeum, sequence (A5ZY13 entry or part of it): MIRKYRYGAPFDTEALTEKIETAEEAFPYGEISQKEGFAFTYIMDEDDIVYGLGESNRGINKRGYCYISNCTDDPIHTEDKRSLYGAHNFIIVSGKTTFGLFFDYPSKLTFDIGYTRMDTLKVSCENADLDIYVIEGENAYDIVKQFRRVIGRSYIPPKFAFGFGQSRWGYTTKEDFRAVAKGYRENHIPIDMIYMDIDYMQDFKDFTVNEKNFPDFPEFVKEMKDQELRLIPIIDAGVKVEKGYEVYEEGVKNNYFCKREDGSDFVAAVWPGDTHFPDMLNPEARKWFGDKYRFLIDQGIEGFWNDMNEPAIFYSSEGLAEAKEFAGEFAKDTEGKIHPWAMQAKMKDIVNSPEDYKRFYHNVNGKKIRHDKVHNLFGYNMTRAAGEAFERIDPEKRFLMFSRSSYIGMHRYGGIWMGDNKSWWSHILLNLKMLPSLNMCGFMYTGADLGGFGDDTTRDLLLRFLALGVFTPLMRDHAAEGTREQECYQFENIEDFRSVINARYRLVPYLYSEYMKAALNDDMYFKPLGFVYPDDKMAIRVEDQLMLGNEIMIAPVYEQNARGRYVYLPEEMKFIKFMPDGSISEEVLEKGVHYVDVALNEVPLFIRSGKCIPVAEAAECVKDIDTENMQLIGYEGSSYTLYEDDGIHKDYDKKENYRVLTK

SMILES: CC1(C)c2[nH]c3ccc(C(F)(F)F)cc3c2C[C@]2(C)[C@H]3C(=O)C=C4[C@@H]5C[C@@](C)(C(=O)O)CC[C@]5(C)CC[C@@]4(C)[C@]3(C)CC[C@@H]12 [FC-114]
- toxic effects at the macroscopic level (necropsy images) (female Wistar rats): No toxic effects were observed
- Toxic Effects (female Wistar rats; dose 175 mg/kg oral): None
- Weight Gain for 2 Weeks (female Wistar rats; dose 175 mg/kg oral): 22.8 g
- Toxic Effects (female Wistar rats; dose 550 mg/kg oral): None
- Weight Gain for 2 Weeks (female Wistar rats; dose 550 mg/kg oral): 23.4 g
- Toxic Effects (female Wistar rats; dose 2000 mg/kg oral): None
- Weight Gain for 2 Weeks (female Wistar rats; dose 2000 mg/kg oral): 21.5 g
- AOT (acute oral toxicity) (female Wistar rats): higher than 2000 mg/kg
- fasting glucose levels [1]: halt the continuous increase of glucose levels
- CC50 at 48 h [2]: 59.5 ± 3 µM
- AUC of the OGTT [3, 5]: 53,895
- AUC of the OGTT [3, 6]: 62,944
- AUC of the OGTT [3, 7]: 57,131
- α-glucosidase inhibitory activity ([4]; range of concentrations tested): not active

SMILES: Cc1ccc(-n2ncc3c2C(C)(C)[C@@H]2CC[C@]4(C)[C@H](C(=O)C=C5[C@@H]6C[C@@](C)(C(=O)O)CC[C@]6(C)CC[C@]54C)[C@@]2(C)C3)cc1 [FC-122]
- toxic effects at the macroscopic level (necropsy images) (female Wistar rats): No toxic effects were observed
- Toxic Effects (female Wistar rats; dose 175 mg/kg oral): None
- Weight Gain for 2 Weeks (female Wistar rats; dose 175 mg/kg oral): 23.5 g
- Toxic Effects (female Wistar rats; dose 550 mg/kg oral): None
- Weight Gain for 2 Weeks (female Wistar rats; dose 550 mg/kg oral): 25.2 g
- Toxic Effects (female Wistar rats; dose 2000 mg/kg oral): None
- Weight Gain for 2 Weeks (female Wistar rats; dose 2000 mg/kg oral): 26.4 g
- AOT (acute oral toxicity) (female Wistar rats): higher than 2000 mg/kg
- fasting glucose levels [1]: halt the continuous increase of glucose levels
- CC50 at 48 h ([2]; HFF-1 human foreskin fibroblasts): 68.4 ± 1 µM
- AUC of the OGTT [3, 5]: 58,941
- AUC of the OGTT [3, 6]: 57,003
- AUC of the OGTT [3, 7]: 53,076
- glucose blood levels in OGTT compared to untreated animals ([3]; after 14 days of administration, ANOVA/Bonferroni): ranked third
- Inhibition type (α-glucosidase) ([4]; Lineweaver-Burk plots): linear-mixed type
- Ki ([4]; substrate pNPG, Lineweaver-Burk): 5.2 µM
- fold better potency than acarbose (Ki) ([4]; vs acarbose): ~ 5 fold
